This is an account of results in patent US10494364B2, “Cathepsin K inhibitors and application thereof” (SUNSHINE LAKE PHARMA CO., LTD., priority 2015, dated 2019).

One may read the Cmax as the maximum level reached in the sampled fluid or tissue. As a reminder, the Tmax is the time from dosing to the highest level. Broadly, the bioavailability is the share of a dose that reaches the circulation, judged against a reference dose that is usually intravenous. Low values mean poor availability, high ones good availability.

The target in data set [1] is human cathepsin B (Homo sapiens, UniProt P07858). The experiment in a line: Assay of cathepsin B inhibitory activity in vitro. Format: biochemical. The settings on record: IC50 against human cathepsin B; substrate Z-Phe-Arg-AMC 10 μM; 25° C.; read-out: Cat-B. As for the experimental part:
Assay Method of Cathepsin B Inhibitory Activity In Vitro
0.01 ng/μL was the final concentration of Cathepsin B in the enzyme reaction, and Z-Phe-Arg-AMC with the final concentration of 10 μM was added into the reaction system as substrate, in the reaction system the test compound and enzyme had been incubated at 25° C. for 15 min.

Data set [2] in a line: Pharmacokinetic test in SD rats (iv and oral gavage), plasma by LC/MS/MS. The format is in vivo. Conditions: rat, male SD rats; for AUC(0-inf): read-out: AUCINF h * ng/ml; for AUC(0-t): read-out: AUClast h * ng/ml; for half-life: read-out: T1/2 h (converted). As for the experimental part: Healthy adult male SD rats were divided into groups with administration of compound by intravenous injection and oral gavage.
2. Preparation of the Test Compound Solution:
A certain amount of the test compound was weighed, and then mixed with 5% DMSO, 10% Kolliphor HS15 and 85% Saline to prepare a clarified solution.
3. Administration and Sample Collection:
All groups were fasted for 12 hours before administering, free drinking, and fed at 3 hours after administration. Each group was administered with test compound by vein intravenous (iv, 1 mg/kg) in the hind foot and oral gavage (po, 5 mg/kg) independently. The blood samples were collected from tail vein at the time point of 0 h, 0.083 h, 0.25 h, 0.5 h, 1 h, 2 h, 4 h, 6 h, 8 h and 24 h after administration and the amount of blood sample collected at each time point was about 200-400 μL. The blood samples collected at each time point were independently placed in K2EDTA anticoagulation tube and preserved in the incubator containing ice packs. The plasma of each blood sample above was separated by centrifugation at 4600 r/min at 4° C. for 5 min in 15 minutes after collecting. The plasma samples were preserved at −80° C. for measuring.
The content of the compound in plasma of rat after administration was determined by LC/MS/MS method.

In data set [3] the target is T1, human cathepsin K (Homo sapiens, UniProt P43235).
T1 sequence (P43235 115-329): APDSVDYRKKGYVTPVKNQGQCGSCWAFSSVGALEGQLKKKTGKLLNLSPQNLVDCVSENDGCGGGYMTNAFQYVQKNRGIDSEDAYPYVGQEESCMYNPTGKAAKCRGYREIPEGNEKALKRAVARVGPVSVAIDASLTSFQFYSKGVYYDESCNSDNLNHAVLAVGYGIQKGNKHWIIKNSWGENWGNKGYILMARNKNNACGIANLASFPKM
The data set can be described thus: Assay of cathepsin K inhibitory activity in vitro. Format: biochemical. Conditions: IC50 against human cathepsin K; substrate Z-Phe-Arg-AMC 10 μM; 25° C.; read-out: Cat-K. On the procedure:
Assay Method of Cathepsin K Inhibitory Activity In Vitro
Using 45000-fold diluted cathepsin K solution and 10 μM Z-Phe-Arg-AMC as substrate, the test compound and cathepsin K solution were incubated at 25° C. for 15 min in a 15 μL reaction system according to the optimized experimental condition.

Data set [4] addresses human cathepsin L (Homo sapiens, UniProt P07711). The data set can be described thus: Assay of cathepsin L inhibitory activity in vitro. Format: biochemical. Conditions: IC50 against human cathepsin L; substrate Z-Phe-Arg-AMC 10 μM; 25° C.; read-out: Cat-L. On the procedure:
Assay Method of Cathepsin L Inhibitory Activity In Vitro
0.01 ng/μL was the final concentration of Cathepsin L in the enzyme reaction, and Z-Phe-Arg-AMC with the final concentration of 10 μM was added into the reaction system as substrate, in the reaction system the test compound and enzyme had been incubated at 25° C. for 15 min.

Data set [5] concerns the target human cathepsin S (Homo sapiens, UniProt P25774). The data set can be described thus: Assay of cathepsin S inhibitory activity in vitro. Format: biochemical. The settings on record: IC50 against human cathepsin S; substrate Z-VVR-AMC 20 μM; 25° C.; read-out: Cat-S. As for the experimental part: Assay Method of Cathepsin S Inhibitory Activity In Vitro
0.25 ng/L was the final concentration of Cathepsin S in the enzyme reaction, and Z-VVR-AMC with the final concentration of 20 μM was added into the reaction system as substrate, in the reaction system the test compound and enzyme had been incubated at 25° C. for 15 min.

Like-named read-outs stand apart in the source and are kept apart here.

Chain of human cathepsin S (P25774 115-331): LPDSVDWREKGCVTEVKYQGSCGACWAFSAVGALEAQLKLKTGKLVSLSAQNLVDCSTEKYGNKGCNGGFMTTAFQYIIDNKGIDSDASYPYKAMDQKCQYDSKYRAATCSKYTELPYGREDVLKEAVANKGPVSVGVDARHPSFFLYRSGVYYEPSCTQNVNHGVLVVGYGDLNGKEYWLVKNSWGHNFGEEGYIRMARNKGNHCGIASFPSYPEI
Chain of human cathepsin L (P07711 114-333): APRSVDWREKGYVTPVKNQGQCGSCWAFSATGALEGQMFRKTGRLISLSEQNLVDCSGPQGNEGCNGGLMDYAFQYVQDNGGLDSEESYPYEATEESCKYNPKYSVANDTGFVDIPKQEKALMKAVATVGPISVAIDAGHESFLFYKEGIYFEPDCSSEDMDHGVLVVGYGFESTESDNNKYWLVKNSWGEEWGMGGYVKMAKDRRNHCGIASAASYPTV

Take `N#CC1(NC(=O)C2(NC(=O)c3cc4ccc(-c5ccc(-n6cncn6)c(OC(F)F)c5)cc4o3)CCC(F)(F)CC2)CC1` [Example 53, N-(1-((1-cyanocyclopropyl)carbamoyl)-4,4-difluorocyclohexyl)-6-(3-(difluoromethoxy)-4-(1H-1,2,4-triazol-1-yl)phenyl)benzofuran-2-carboxamide]: the IC50 in data set [1] was 2500 nM. Besides, in data set [2] (iv 1 mg/kg), the Cmax came to 798 ng/mL, the Tmax was 0.083 h, the clearance came out at 2.91 mL/min/kg and the AUC(0-inf) came to 5740 ng·h/mL. Besides, in data set [2] (iv 1 mg/kg), the AUC(0-t) is 5470 ng·h/mL and the half-life is 5.9 h. Further, in data set [2] (iv 1 mg/kg, read-out: Vss), the Vd is 1.2 L/kg. Further, in data set [2] (po 5 mg/kg), the concentration peaked (Cmax) at 2230 ng/mL, the time to peak (Tmax) came to 2.67 h, the AUC(0-inf) came out at 21700 ng·h/mL and the AUC(0-t) came out at 21100 ng·h/mL. Moreover, in data set [2] (po 5 mg/kg), the half-life is 4.66 h. In data set [2] (po 5 mg/kg vs iv 1 mg/kg), this compound gave a bioavailability of 75.6%. Also, in data set [3], the IC50 is 1.4 nM. Moreover, in data set [4], the IC50 was more than 10000 nM. The IC50 in data set [5] was more than 10000 nM.
